Test results taken from patent US20100041597A1, “PEPTIDES TARGETED TO PROTEIN KINASE C ISOFORMS AND USES THEREOF” (priority 2005, published 2010).

Molecular target: T1, PKC-α (Rattus norvegicus, UniProt P05696)
T1 construct: Cell lysates from either IMR-32 (human neuroblastoma) cells or C6Cx43 cells; endogenous in cells; host or cells: C6Cx43 (rat glioma transfected with connexin 43)
Assay: In vitro competition with anti-PKC-α antibody on blotted cell lysate, Protocol A, C6Cx43 cells
Format: binding
Experimental: The ability of the peptides to interfere with the binding of a PKC-α-specific monoclonal antibody to PKC-α was determined using the following protocol.
Cell lysates from either IMR-32 (human neuroblastoma) cells or C6Cx43 cells (rat glioma transfected cells overexpressing connexin 43) were obtained using standard protocols and the proteins of the lysate were separated by SDS PAGE electrophoresis and electrotransferred onto a nitrocellulose membrane. […] A primary polyclonal antibody specific for PKC-α (Santa Cruz Biotechnology, Inc., CA) was then added (15 μg/ml) and the membrane incubated for a further 45 minutes. Finally, the primary antibody was detected with a secondary antibody conjugated to alkaline phosphatase using standard procedures. The intensity of the band corresponding to PKC-α was assessed by scanning and densitometry using the Gel-Pro software (Media Cybernetics) to obtain relative band intensities (average of 3 replicas). Control assays were conducted as described above except that blocking buffer without peptide was used.
The results are expressed as relative band intensity and as a percentage of the intensity of the corresponding band in the control assay (“Relative intensity (%)”). “% inhibition” relates to the percentage of the PKC-α band that is inaccessible to the antibody.

With Ac-AKGIQEVKGGDAQNLIGISI-NH2 [PRE 3] the “Band Intensity” value (75 μg, Table 5) was 0.909, the inhibition at 0.075 mg (75 μg, Table 5) was 0% and the remaining activity at 0.075 mg (75 μg, Table 5, read-out: Relative Intensity (%)) was 98%. For the same substance, the “Band Intensity” value (300 μg, Table 5) was 0.888, the inhibition at 0.3 mg (300 μg, Table 5) was 0% and the remaining activity at 0.3 mg (300 μg, Table 5, read-out: Relative Intensity (%)) was 95.8%. For the same substance, the “Band Intensity” value (600 μg, Table 5) was 0.889, the inhibition at 0.6 mg (600 μg, Table 5) was 0% and the remaining activity at 0.6 mg (600 μg, Table 5, read-out: Relative Intensity (%)) was 95.9%. The “Band Intensity” value (3.75 mg, Table 5) was 0.603, the remaining activity at 3.75 mg (3.75 mg, Table 5, read-out: Relative Intensity (%)) was 105% and the “Band Intensity” value (5.25 mg, Table 5) was 0.599. The remaining activity at 5.25 mg (5.25 mg, Table 5, read-out: Relative Intensity (%)) was 105%, the “Band Intensity” value (7.5 mg, Table 5) was 0.589 and the inhibition at 7.5 mg (7.5 mg, Table 5) was 0%. It also gave a remaining activity at 7.5 mg (7.5 mg, Table 5, read-out: Relative Intensity (%)) of 103%.
